{"source": "patent US20230301972A1", "about": "“ANTI-FIBROTIC COMPOSITION AND RELATED METHODS” (Fred Hutchinson Cancer Center, priority 2020, published 2023)", "key": {"[1]": {"system": "IPF-LL29 and IPF-LL97A cells", "assay": "qPCR of TGF-β-induced gene expression in IPF-LL29 and IPF-LL97A cells", "type": "cell-based, human", "conditions": "human lung fibroblast cell lines derived from IPF patients", "protocol": "(§1) IPF-LL29, IPF-LL97A, and human lung fibroblast LL47 cell lines were purchased from ATCC. Mouse lung fibroblasts were isolated from the lungs of male C57BL/6J mice. Cells were grown at 37° C. under 5% CO2, 95% ambient atmosphere and maintained in Dulbecco's […] (DMEM) supplemented with 10% FBS (Sigma) and 1% Penn Strep.\nFIGS. 2A and 2B. IPF-29 (FIG. 2A) or IPF-97A (FIG. 2B) cells were incubated with TGF-β alone at 5 ng/ml or TGF-β with indicated drugs for 48 hours and 5 days. Total cellular RNA was isolated using a RNeasy Mini Kit (QIAGEN). 1 μg of total RNA was reverse transcribed into first-strand cDNA using an RT2 First Strand Kit (QIAGEN). The resultant cDNA was subjected to qPCR using indicated human primers to measure the changes in mRNA expression of indicated human genes."}, "[2]": {"system": "Human lung fibroblasts (LL47)", "assay": "qPCR of TGF-β-induced gene expression in human lung fibroblasts LL47", "type": "cell-based", "conditions": "OSI-632 1 mM as printed; LL47, 24 hours", "protocol": "as §1\n(§2) FIGS. 3A and 3B. Human lung fibroblast LL47 and mouse primary lung fibroblasts isolated from mouse lungs were incubated with TGF-β alone at 5 ng/ml or TGF-β with indicated drugs for 24 hours. Same method as outlined in FIGS. 2A and 2B was used to measure the mRNA expression of indicated human or mouse genes."}, "[3]": {"system": "mouse lung fibroblasts", "assay": "qPCR of TGF-β-induced gene expression in mouse primary lung fibroblasts", "type": "cell-based", "conditions": "TGF-β 5 ng/ml, 24 hours", "protocol": "as §1, §2"}, "[4]": {"system": "bleomycin-induced lung fibrosis", "assay": "Bleomycin-induced lung fibrosis mouse model", "type": "in vivo", "protocol": "FIG. 6B: Male C57BL/6J mice between 7-10 week old were used in the study. A single dose of 50 IU of bleomycin was given to mouse lung via oropharyngeal aspiration to induce lung fibrosis. […] Mice were sacrificed on Day 28 after bleomycin treatment. Lungs were either snap frozen or fixed in 10% formalin and stained for H&E and Masson Trichrome.\nFIG. 6C: H&E and Masson Trichrome staining were evaluated and scored by a board-certified veterinary pathologist.\nFIG. 7A: Total protein was extracted from the snap frozen lung tissue in T-PER™ Tissue Protein Extraction Reagent by Omni Bead Ruptor homogenizer. Changes in collagen I and the phosphorylation levels of indicated proteins were detected in the lung homogenates from the bleomycin in vivo studies by reverse-phase protein array.\nFIG. 7B: pSTAT3 levels were detected in the fixed lung tissue by immunohistochemistry. Intensity of staining was quantified by HALO imaging software.\nFIG. 8: Total RNA was extracted from the snap frozen lung tissue in TRIzol™ Reagent by Omni Bead Ruptor homogenizer. 1 μg of total RNA was reverse transcribed into first-strand cDNA using an RT2 First Strand Kit (QIAGEN). The resultant cDNA was subjected to qPCR using indicated mouse primers to measure the changes in mRNA expression of indicated mouse genes.\nA single dose of 25-50 IU of bleomycin was given to mouse lung via oropharyngeal aspiration to induce lung fibrosis. […] Lungs were processed and stained for H&E and Masson Trichrome."}, "[5]": {"system": "FGFR", "assay": "Kinome-profiling, FGFR", "type": "biochemical", "conditions": "at 500 nM"}, "[6]": {"system": "LX2 cells", "assay": "qPCR of TGF-β-induced gene expression in LX2 cells", "type": "cell-based, human", "protocol": "LX2 cells were obtained from Sigma Aldrich (Cat #SCC064). LX2 cells were grown at 37° C. under 5% CO2, 95% ambient atmosphere and maintained in Dulbecco's […] (DMEM) supplemented with 10% FBS (Sigma) and 1% Penn Strep.\nFIGS. 10B and 10C: LX2 cells were incubated with TGF-β alone at 6.5 ng/ml or TGF-β with indicated drugs for 48 hours. Total cellular RNA was isolated using a RNeasy Mini Kit (QIAGEN). 1 μg of total RNA was reverse transcribed into first-strand cDNA using an RT2 First Strand Kit (QIAGEN). The resultant cDNA was subjected to qPCR using indicated human primers to measure the changes in mRNA expression of indicated human genes."}, "[7]": {"system": "CCl4-induced fibrosis", "assay": "Carbon tetrachloride (CCl4)-induced liver fibrosis mouse model", "type": "in vivo", "protocol": "FIGS. 11A and 11B. Male C57BL/6J mice between 6-8 week old were used in the study. Mice were treated with intraperitoneal injection of 0.5 μl carbon tetrachloride (CCl4) per gram body weight, dissolved in corn oil at a ratio of 1:3, twice a week (Tuesdays and Saturdays) for 5.5 weeks or corn oil control only. […] At the end of the study, livers were either snap frozen or fixed in 10% formalin and stained for H&E, Masson Trichrome (FIG. 11A) and Ki67 (FIG. 11B).\nTotal RNA was extracted from the snap frozen liver tissue in TRIzol™ Reagent by Omni Bead Ruptor homogenizer. 1 μg of total RNA was reverse transcribed into first-strand cDNA using an RT2 First Strand Kit (QIAGEN). The resultant cDNA was subjected to qPCR using indicated mouse primers to measure the changes in mRNA expression of indicated mouse genes (FIG. 11A and FIG. 11C).\nFIG. 12A: Total protein was extracted from the snap frozen liver tissue in T-PER™ Tissue Protein Extraction Reagent by Omni Bead Ruptor homogenizer. Changes in the phosphorylation levels of indicated proteins were detected in the liver homogenates from the CCl4 in vivo studies by reverse-phase protein array.\nFIG. 12B: pSTAT3 levels were detected in the fixed […] tissue by immunohistochemistry. Intensity of staining was quantified by HALO imaging software."}, "[8]": {"conditions": "cited from earlier work"}}, "data": [{"molecule": "NC(=O)c1c(OCc2c(F)cc(Br)cc2F)nsc1NC(=O)NCCCCN1CCCC1", "note": "[OSI-632, 3-(4-bromo-2,6-difluoro-benzyloxy)-5-[3-(4-pyrrolidin-1-yl-butyl)-ureido]-isothiazole-4-carboxylic acid amide]", "values": [{"measurement": "TGF-β-induced expression of myofibroblast activation markers αSMA, COL1A1, COL3A1 and FN1", "setting": "[1]; 48 hours and 5 days", "value": "decreased"}, {"measurement": "expression of myofibroblast proliferation stimuli TGFB1, CTGF, IL-11, FGF2 and VEGFA", "setting": "[1]; TGF-β 5 ng/ml", "value": "significant decrease"}, {"measurement": "TGFb-induced expression of COL1A1, ACTA2, and FN1 and of indicated proliferation stimuli", "setting": "[2]", "value": "inhibited"}, {"measurement": "expression of indicated fibroblast activation and proliferation factors", "setting": "[3]", "value": "inhibited expression"}, {"measurement": "lung fibrosis, scoring of H&E and Masson Trichrome staining by veterinary pathologist", "setting": "[4]; 50 mg/kg oral, once a day Monday to Friday for 2 weeks, mice", "value": "significantly decreased lung fibrosis"}, {"measurement": "lung inflammation, scoring of H&E and Masson Trichrome staining", "setting": "[4]; bleomycin mouse model", "value": "significantly decreased"}, {"measurement": "overall survival", "setting": "[4]; bleomycin mouse model, OSI-632 treatment", "value": 100, "unit": "%"}, {"measurement": "collagen deposition (Masson trichome staining)", "setting": "[4]; vs bleomycin only treated mice, 50 mg/kg", "value": "significant reduction"}, {"measurement": "phosphorylation of Src, Erk, JNK, S6, Nfκβ, and pSTAT3 in lung", "setting": "[4]; vs bleomycin-only treated mouse lung tissues, RPPA, IHC", "value": "significantly decreased"}, {"measurement": "bleomycin-induced collagen levels and pro-fibrotic factors Fn1, IL-6 and IL-1b in lung", "setting": "[4]; vs bleomycin-only treated mouse lung tissues, RPPA, qPCR", "value": "significantly decreased"}, {"measurement": "inhibition of FGFR", "setting": "[5]", "value": 90, "unit": "%"}, {"measurement": "expression of integrins (ITGAV and ITGB6) and HSC proliferation stimuli TGFB2, PDGFA, PDGFB, CTGF, VEGFA, and CCL5", "setting": "[6]", "value": "significant decrease"}, {"measurement": "inhibition of expression of COL1A1 (FIG. 10C)", "setting": "[6]", "value": 2, "unit": "fold"}, {"measurement": "inhibition of expression of COL1A2 (FIG. 10C)", "setting": "[6]", "value": 3, "unit": "fold"}, {"measurement": "inhibition of expression of COL5A1 (FIG. 10C)", "setting": "[6]", "value": 5, "unit": "fold"}, {"measurement": "decrease in TGF-β-induced expression of COL1A1 (FIG. 10B)", "setting": "[6]; 48 hours", "value": 2, "unit": "fold"}, {"measurement": "decrease in TGF-β-induced expression of αSMA (FIG. 10B)", "setting": "[6]; 48 hours", "value": 2, "unit": "fold"}, {"measurement": "carbon tetrachloride (CCl4)-induced fibrosis", "setting": "[7]; 80 mg/Kg thrice/week oral gavage, 3 weeks, mice, preliminary data", "value": "significant decrease"}, {"measurement": "hepatocyte regeneration measured by Ki67 staining", "setting": "[7]; livers treated with OSI-632", "value": "increased hepatocyte regeneration"}, {"measurement": "CCl4-induced expression of HSC activation marker Acta2 and proliferation stimuli such as Tgfb2", "setting": "[7]; mouse liver, qPCR", "value": "reverse"}, {"measurement": "reversal of CCl4-induced expression of Loxl1", "setting": "[7]; mouse liver, qPCR", "value": 2, "unit": "fold"}, {"measurement": "reversal of CCl4-induced expression of Timp1", "setting": "[7]; mouse liver, qPCR", "value": 5, "unit": "fold"}, {"measurement": "reversal of CCl4-induced expression of Timp2", "setting": "[7]; mouse liver, qPCR", "value": 2, "unit": "fold"}, {"measurement": "reversal of CCl4-induced expression of Timp3", "setting": "[7]; mouse liver, qPCR", "value": "~2", "unit": "fold"}, {"measurement": "mRNA expression of Col1a1 (qPCR) and protein level of collagen 1 (RPPA), liver", "setting": "[7]; vs CCl4-only treated controls", "value": "significantly decreased"}, {"measurement": "collagen deposition (Masson trichome staining), liver", "setting": "[7]; vs CCl4 only treated mice", "value": "significant reduction"}, {"measurement": "bleeding and thrombosis toxicity", "setting": "[8]; as sometimes observed with agents targeting VEGF/VEGFR", "value": "neither had toxicity issues of bleeding and thrombosis"}, {"measurement": "adverse events in the liver", "setting": "[8]; in vivo", "value": "nor does it cause any adverse events in the liver"}, {"measurement": "maximal tolerable dose", "setting": "[8]; phases I and II trials for various cancers", "value": 200, "unit": "mg/day"}, {"measurement": "safety and tolerability", "setting": "[8]; phases I and II trials, toxicities primarily low grade and readily managed", "value": "safe and well-tolerated"}]}]}
